Tests used:
[1] = test system: MCF10a; experiment: Growth inhibition, SRB assay, normal MCF10a cells; assay type: cell-based, human; conditions: Homo sapiens, MCF-10A, 48 hours
From the text: (§1) Table 2 refers to the growth inhibitory effect of COMP, olaparib and cisplatin (CDDP) in a panel of human immortalized breast (T47D, MCF-7, MDA-MB-231, MDA-MB-468, SK-BR-3 and HCC1937), ovarian and endocervical (OCVAR, SKOV-3, […],IGROV-1 and HeLa), pancreatic (PANC-1 and MIAPACA), neuroblastoma (SHSY-5Y), lung (NCI-H460), prostate (VCaP) melanoma (A375 and SK-MEL-5) and glioblastoma (SF-208) cancer cells, immortalized normal MCF10a and HFF1 human cells, and patient-derived ovarian (PD-OVCA #1, #9, #41, #49 and #62) cancer cells. […] Data are mean±SEM (n=5).
(§2) In an embodiment, IC50 values were determined by Sulforhodamine B (SRB) or MTS [3-(4,5-dimethylthiazol-2-yl)-5-(3-carboxymethoxyphenyl)-2-(4-sulfophenyl)-2H-tetrazolium] assay in immortalized and PD-OVCA cells, respectively. Cancer cells were plated in 96-well plates and incubated for 24 hours. Cells were then exposed to serial dilutions of compounds for 48 hours. The solvent DMSO corresponding to the maximum concentration used in these assays (0.025%) was included as control. Results are the mean±S.E.M. of 3-5 independent experiments.

[2] = test system: PD-OVCA#49; experiment: Growth inhibition, MTS assay, PD-OVCA#49; assay type: cell-based, human; conditions: Homo sapiens, PD-OVCA#49, wild-type BRCA1/2, 48 hours
From the text: as §1, §2

[3] = test system: HFF-1; experiment: Growth inhibition, SRB assay, normal HFF-1 cells; assay type: cell-based, human; conditions: Homo sapiens, HFF-1, 48 h
From the text: as §1, §2

[4] = test system: pancreatic cancer cells (PANC-1 and MIAPACA); experiment: Growth inhibition, pancreatic cancer cells; assay type: cell-based; conditions: Homo sapiens, Pancreatic cancer cell, 48 hours
Method: In an embodiment, the activity of COMP compound was tested in an array of human normal and cancer cell lines (Table 2, FIG. 2).
as §1, §2

[5] = test system: BRCA1-BARD1 interaction; experiment: Co-IP of BRCA1-BARD1 interaction; assay type: cell-based, human; conditions: 12 and 20 μM; 18 hours (MDA-MB-231, HCC1937), 24 hours (IGROV-1)
Method: (FIGS. 11A-D) Co-IP was performed in MDA-MB-231 (FIG. 11A), HCC1937 (FIG. 11B) and IGROV-1 (FIG. 11C) cells treated with 12 and 20 μM COMP for 18 hours (in MDA-MB-231 and HCC1937 cells) and 24 hours (in IGROV-1 cells). Assay was performed using the Pierce classic magnetic IP and Kit followed by western blot detection. In FIGS. 11A-C, representative immunoblots are shown; whole-cell lysate (Input).

[6] = test system: HCC1937 (5382insC); experiment: Growth inhibition, SRB assay, HCC1937; assay type: cell-based, human; conditions: Homo sapiens, HCC1937, 48 h
From the text: as §1, §2

[7] = test system: IGROV-1 (mutBRCA1 280delA; mutBRCA2 3320del1); experiment: Growth inhibition, SRB assay, IGROV-1; assay type: cell-based, human; conditions: Homo sapiens, IGROV-1, 48 h
From the text: as §1, §2

[8] = test system: PD-OVCA#41 (mutBRCA2: c. 3707dupA); experiment: Growth inhibition, MTS assay, PD-OVCA#41; assay type: cell-based, human; conditions: Homo sapiens, PD-OVCA#41, benign mutant BRCA1 with pathogenic mut BRCA2, 48 hours
From the text: as §1, §2

[9] = test system: MCF7 DR-GFP cells; experiment: Chromosomal DR-GFP homologous recombination assay; assay type: cell-based, human; conditions: 2 μM and 6 μM, 48 hours
Method: FIG. 9 illustrates the effect of 2 and 6 μM COMP after 48 hours of treatment on homologous recombination activity in MCF7 DR-GFP cells using the chromosomal DR-GFP assay. After 72 hours of double strand breaks induction, MCF7 DR-GFP cells were analysed by flow cytometry to quantify the percentage of GFP-positive cells.
In an embodiment, COMP decreased homologous recombination DNA repair and disrupted the BRCA1-BARD1 interaction.

[10] = test system: MDA-MB-231; experiment: Growth inhibition, SRB assay, MDA-MB-231; assay type: cell-based, human; conditions: Homo sapiens, MDA-MB-231, 48 h
From the text: as §1, §2

[11] = test system: triple-negative breast cancer and ovarian cancer cells (MDA-MB-231, IGROV-1, HCC1937); experiment: Colony-formation assay; assay type: cell-based, human; conditions: 8 days (MDA-MB-231 and IGROV-1), 16 days (HCC1937) of treatment
Method: FIG. 4 illustrates the effect of COMP on (A-B) colony formation of cancer cells after 8 days (MDA-MB-231 and IGROV-1) and 16 days (HCC1937) of treatment. In FIG. 4A, representative experiments are shown.
In an embodiment, colony-formation assay was performed.

[12] = test system: MiaPACA; experiment: Growth inhibition, SRB assay, MiaPACA; assay type: cell-based; conditions: Homo sapiens, MIA PaCa-2, wild-type BRCA1/2, 48 hours
From the text: as §1, §2

[13] = Body and organ weight of treated xenograft mice; assay type: in vivo; conditions: 2 mg/kg intraperitoneal, seven administrations; compared to vehicle
Method: FIG. 14 illustrates the in vivo antitumor activity of COMP. C57BL/6-Rag2−/−IL2rg−/− xenograft mice, carrying IGROV-1 cells, were treated with vehicle (control), or 2 mg/kg of COMP or 50 mg/kg of olaparib by intraperitoneal injection three times per week (seven administrations in total). The treatment was initiated when palpable tumors were established (^˜100 mm3). […] In FIGS. 14A-C, data are mean±SEM, n=13 animals.

In the case of `CC[C@H]1CN(C)C2Cc3c([nH]c4ccccc34)/C(=N/Nc3ccc(Br)cn3)C[C@@H]1[C@@H]2C(=O)OC` [COMP, methyl (5R,6S,14S,E)-8-(2-(5-bromopyridin-2-yl) hydrazineylidene)-5-ethyl-3-methyl-2,3,4,5,6,7,8,9-octahydro-1H-2,6-methanoazecino [5,4-b]indole-14-carboxylate], the IC50 [1] is reported as 29.5 µM, the IC50 [2] is reported as 15.1 ± 1.4 µM and the IC50 ([3]; HFF1 normal cells, 48 hours (second Table 2)) is reported as 33.6 µM. For the same compound, the IC50 ([3]; HFF-1 normal cells, 48 hours) was 33.6 µM, the IC50 [4] was 4.5 µM and the “BRCA1-BARD1 interaction (BARD1 co-immunoprecipitated with BRCA1)” value [5] was “disruption of the BRCA1-BARD1 interaction”. It also gave an IC50 ([6]; HCC1937, BRCA1 mutant, 48 hours (second Table 2)) of 5.2 µM, an IC50 ([6]; HCC1937, mutant BRCA1, 48 hours) of 5.2 ± 1.3 µM and an IC50 ([7]; IGROV-1, mutant BRCA1/2, 48 hours) of 4.6 ± 1.5 µM. For the same compound, the IC50 ([7]; Igrov-1, BRCA1 mutant, 48 hours (second Table 2)) was 4.6 µM, the IC50 [8] was 14.1 ± 0.9 µM and the “homologous recombination DNA repair capacity (GFP-positive cells)” value [9] was “marked reduction”. For the same compound, the IC50 ([10]; MDA-MB-231, BRCA1 loss of heterozigoty, 48 hours) was 5 ± 1.4 µM, the IC50 ([10]; MDA-MB-231, BRCA1 loss of heterozygosity, 48 hours (second Table 2)) was 5 µM and the “colony-forming ability of cancer cells” value [11] was “significantly reduced”. The IC50 [12] was 4.5 ± 0.4 µM, the body weight [13] was “no significant variation” and the “organs weight (spleen, liver, heart and kidneys)” value [13] was “no significant variation”.

— patent US20250345317A1, “New pharmaceutical compounds, methods and uses thereof” (BBIT-THERAPEUTICS, LDA., priority 2020, published 2025)
